PMC8869097, “Benzothiazole Derivatives as Multifunctional Antioxidant Agents for Skin Damage: Structure–Activity Relationship of a Scaffold Bearing a Five-Membered Ring System” (Antioxidants, 2022)
Like-named read-outs stand apart in the source and are kept apart here.

What was measured:
[1] = tested on: Trichophyton tonsurans; experiment: Antidermatophyte activity, plaque growth inhibition; type: cell-based, Trichophyton tonsurans CBS 483.76; conditions: read-out: % Inhibition Growth T. tonsurans
Procedure: (§1) The dermatophytes used in this study were Epidermophyton floccosum var. floccosum (Netherlands) CBS 358.93 strain, Trichophyton tonsurans (Netherlands) CBS 483.76 strain, Trichophyton mentagrophytes (Netherlands) CBS 160.66 strain, Microsporum canis (Iran) CBS 131,110 strain, and Microsporum gypseum (Iran) CBS 130,948 strain. All dermatophytes were maintained at 4 °C as agar slants on SDA. Candida albicans (ATCC 10231) was maintained at 4 °C on SDA plate.
(§2) The in vitro antifungal activity against the five selected dermatophytes was evaluated, as previously described, using the plaque growth inhibition method. All compounds were evaluated at the final concentration of 100 µg/mL. The percentages of growth inhibition according to Equation (5) were calculated as the average of three different experiments. I = [(C − T)/C] × 100%,(5) where I is the percentage value of growth inhibition, C is the measure of the diameter of the control circular mycelial inoculum (mm) and T is the extended diameter of the treated mycelial inoculum (mm).
(§3) All synthesized benzothiazole derivatives were evaluated to evaluate their in vitro antifungal activity against the five pathogenic dermatophytes that cause the most common dermatomycoses: Microsporum gypseum, Microsporum canis, Trichophyton mentagrophytes, Trichophyton tonsurans and Epidermophyton floccosum. All compounds were tested at a concentration of 100 µg/mL in DMSO, to evaluate the ability to inhibit the growth of dermatophyte cultures in Sabouraud Dextrose Agar (SDA). Briefly, room temperature incubation was performed and dermatophyte inhibition assessed by measuring the colony diameter at each disc for 7 days. The results are shown in Table 3 and were determined as the average of three different experiments.

[2] = tested on: Trichophyton mentagrophytes; experiment: as above; type: cell-based, Trichophyton mentagrophytes CBS 160.66; conditions: read-out: % Inhibition Growth T. mentagrophytes
Procedure: as §1, §2, §3

[3] = tested on: Microsporum gypseum; experiment: as above; type: cell-based, Microsporum gypseum CBS 130,948; conditions: Nannizzia gypsea, read-out: % Inhibition Growth M. gypseum
Procedure: as §1, §2, §3

[4] = Ferric Reducing Antioxidant Power assay (FRAP); conditions: 593 nm
Procedure: The FRAP assay is a widely used method based on a colorimetric reaction linked to a redox and on the use of antioxidants as reducing agents.
The test evaluates the capacity of a sample to reduce ferric to ferrous ions in the presence of TPTZ (2,4,6-tripyridyl-s-triazine). The reaction mixture consists of 0.1 M acetate buffer pH 3.6, 10 mmol/L TPTZ in 40 mmol/HCl, and 20 mmol/L ferric chloride in the ratio 10/1/1 (v:v:v) as described by Benzie et al.. A total of 1.9 mL of reagent was added to 0.1 mL of suitably diluted sample or solvent. The absorbance values were measured using the UV-VIS spectrophotometer at 593 nm and expressed as µmol TE/g compound.

[5] = tested on: Microsporum canis; experiment: Antidermatophyte activity, plaque growth inhibition; type: cell-based, Microsporum canis CBS 131,110; conditions: read-out: % Inhibition Growth M. canis
Procedure: as §1, §2, §3

[6] = UV spectra of compounds in solution (filtering parameters); type: physicochemical
Procedure: The evaluation of the sun protection parameters has been carried out using a UV-Vis spectrophotometer. The absorbance of the solutions of the test compounds dissolved in the different solvents (DMSO, MeOH, DMSO–H2O 4:6, DMSO–H2O 6:4, HE) at a concentration of 0.0015 (±0.000005)% was recorded in the range 290–400 nm using a 1 cm quartz cell at 1 nm intervals. It was decided to evaluate the profile of the compounds in the Peg-7 Glyceryl Cocoate (HE) oil, which is the emollient of choice to solubilize the compounds in a formulation suitable for in vivo analysis. Wavelength absorbance is in relationship with transmittance (T (λ)) from Equation (2) A (λ) = […](2) where T (λ) is the fraction of incident irradiance that is transmitted through a sample.
The three parameters were determined, respectively, in DMSO and in methanol in order to perform a comparison (Table S1).
Since DMSO is a solvent with characteristics very close to those of an oil, the analysis was also carried out in solutions that mimic the possible conditions of a formulation. For this reason, the 4:6 and 6:4 proportions of DMSO–H2O were chosen to evaluate the choice of an oil-in-water or water-in-oil emulsion.

[7] = tested on: Epidermophyton floccosum; experiment: Antidermatophyte activity, plaque growth inhibition; type: cell-based, Epidermophyton floccosum var. floccosum CBS 358.93; conditions: read-out: % Inhibition Growth E. floccosum
Procedure: as §1, §2, §3

[8] = In vitro DPPH test; conditions: compounds at 1 mg/mL, 30 min, 517 nm
Procedure: The assay performed is adapted from Wang et al.. Briefly, 0.750 mL of 1 mg/mL solutions of the tested compounds was treated with 1.5 mL of DPPH solution in MeOH. The absorbance of samples, stored for 30 min at room temperature in the dark, was read on the spectrophotometer at 517 nm. The values obtained were converted into a radical inhibition percentage (%) by Equation (1). DPPH radical scavenging capacity (%) = [1 − A1/A0] × 100%(1) where A0 and A1 were, respectively, the absorbance without and with the sample. Subsequently, the compound with the best profile was tested in order to determine the IC50 (µg/mL). A linear regression plot is performed to calculate the actual sample concentration required to eliminate 50% of the DPPH free radicals.
The antioxidant activity of a molecule is very important and, if present, it can be synergistic with the SPF described above in reducing the damage that is ROS-induced by UV rays. For this reason, the synthesized compounds were assayed in vitro to assess their antioxidant profiles by means of the DPPH and FRAP assays (Table 2). Regarding the ability to scavenge the stable radical 2,2-diphenyl-1-picrylhydrazyl (DPPH), it was decided to investigate first the compounds synthesized at the same concentration (1 mg/mL) and evaluate the percentage of inhibition of the radical DPPH.

[9] = Filtering parameters (in vitro SPF, UVAPF, UVA/UVB, critical wavelength) of W/O formulations on PMMA plates; type: physicochemical
Procedure: The synthesized derivatives were incorporated at increasing concentrations (1%, 2% and 3%) in a topical W/O cosmetic standard formulation, to evaluate the filtering parameters, having the following ingredients composition.
INCI (International Nomenclature Cosmetic Ingredients): aqua, glycerin, Euxyl PE 9010, xanthan gum, ceteareth-12, ceteareth-20, sterearic acid, butylhydroxytoluene, myritol, PEG-7 glyceryl cocoate and 10% sodium solution.
Briefly, the protocol is to finger spread 32.5 mg of each formulation onto 25 cm2 PMMA plates. Each formulation was tested in triplicate by recording five measurements for each dish, after incubation in the dark for 15–30 min at room temperature. UV transmittance data were recorded in the range 290–400 nm using a UV-VIS spectrophotometer.
Blank plate, SPF, UVA-PF and Critical Wavelength were achieved through SPF Calculator Software (version 2.1), Shimadzu, Milan, Italy) as previously reported.
For the determination of the SPF in vitro of the samples in formulation it was decided to use an internal method, developed by us previously and based on the adaptation of the ISO 24443: 2012 [38]. The transmittance spectrum, processed with a specific software (SPF Calculator), made it possible to obtain the SPF, UVAPF, critical lambda and UVA/UVB ratio values of the formulations containing the selected active ingredients (Table 1).

melting point [°C]	A (absorbance) ([6]; DMSO)	ε (molar extinction coefficient) ([6]; DMSO)	λmax ([6]; DMSO) [nm]	A (absorbance) ([6]; MeOH)	ε (molar extinction coefficient) ([6]; MeOH)	λmax ([6]; MeOH) [nm]	SMILES	inhibition at 100 µg/mL ([1]; 100 μg/mL, SDA) [%]	inhibition at 100 µg/mL ([2]; 100 μg/mL, SDA) [%]	inhibition at 100 µg/mL ([3]; 100 μg/mL, SDA) [%]	FRAP [4]	inhibition at 100 µg/mL ([5]; 100 μg/mL, SDA) [%]	inhibition at 100 µg/mL ([7]; 100 μg/mL, SDA) [%]	DPPH (% Inhibition) [8]	also measured
> 250	0.700	13944.22	344.37	0.760	13263.53	341.40	NS(=O)(=O)c1ccc2nc(-c3ccc[nH]3)sc2c1 [Compound 8c, 2-(1H-Pyrrol-2-Yl)benzothiazole-6-Sulfonamide]	2.25 ± 0.03	2.36 ± 0.17	23.1 ± 0.48	119.12 ± 1.49 μmolTE/g	23.3 ± 0.86	24.7 ± 0.71	45.24 ± 2.78%	
> 250	0.370	5308.47	348.87	0.190	3089.43	341.63	O=C(O)c1ccc2nc(-c3ccc[nH]3)sc2c1 [Compound 8b, 2-(1H-Pyrrol-2-Yl)benzothiazole-6-Carboxylic Acid]	5.45 ± 0.12	< 0	< 0	373.15 ± 1.27 μmolTE/g	< 0	< 0	5.71 ± 0.37%	
							O=C(O)/C=C/c1ccc(O)c(O)c1 [Caffeic acid, reference compound]				10125.48 ± 32.87 μmolTE/g			80.15 ± 1.24%	
> 250	1.36	23901.58	331.90	1.02	19318.18	327.57	O=C(O)c1ccc2nc(-c3ccco3)sc2c1 [Compound 9b, 2-(Furan-2-Yl)benzothiazole-6-Carboxylic Acid]	29.8 ± 1.23	< 0	18.1 ± 0.97	66.07 ± 8.23 μmolTE/g	14.5 ± 0.83	5.48 ± 0.12	9.49 ± 0.04%	
> 250	0.59	10332.75	329.00	0.740	13805.97	325.30	NS(=O)(=O)c1ccc2nc(-c3ccco3)sc2c1 [Compound 9c, 2-(Furan-2-Yl)benzothiazole-6-Sulfonamide]	< 0	10.97 ± 0.08	17.82 ± 0.06	150.34 ± 11.01 μmolTE/g	19.5 ± 1.2	36.4 ± 1.25	64.92 ± 0.91%	
> 250	1.160	17818.74	340.00	1.140	21268.66	334.57	O=C(O)c1ccc2nc(-c3cccs3)sc2c1 [Compound 10b, 2-(Thiophen-2-Yl)benzothiazole-6-Carboxylic Acid]	65.5 ± 1.58	14.2 ± 1.01	18.5 ± 1.23	133.91 ± 8.13 μmolTE/g	27.6 ± 1.47	28.3 ± 1.04	46.04 ± 0.07%	

SMILES	melting point [°C]	A (absorbance) ([6]; DMSO)	ε (molar extinction coefficient) ([6]; DMSO)	λmax ([6]; DMSO) [nm]	A (absorbance) ([6]; MeOH)	ε (molar extinction coefficient) ([6]; MeOH)	λmax ([6]; MeOH) [nm]	inhibition at 100 µg/mL ([1]; 100 μg/mL, SDA) [%]	inhibition at 100 µg/mL ([2]; 100 μg/mL, SDA) [%]	inhibition at 100 µg/mL ([3]; 100 μg/mL, SDA) [%]	FRAP [4]	inhibition at 100 µg/mL ([5]; 100 μg/mL, SDA) [%]	inhibition at 100 µg/mL ([7]; 100 μg/mL, SDA) [%]	DPPH (% Inhibition) [8]	also measured
O=S(=O)(O)c1ccc2[nH]c(-c3ccccc3)nc2c1 [PBSA, 2-Phenyl-1H-benzo[d]imidazole-5-sulfonic acid, reference compound]		1.130	23839.66	310.50	1.460	30801.69					<LOQ *			<LOQ *	inhibition at 100 µg/mL [1]: < 0%; inhibition at 100 µg/mL [2]: < 0%; inhibition at 100 µg/mL [3]: 9.44 ± 0.35%; SPF ([9]; 1% in W/O formulation): 3.22; UVAPF ([9]; 1% in W/O formulation): 0.94; λc ([9]; 1% in W/O formulation): 319 nm; SPF ([9]; 2% in W/O formulation): 4.63; UVAPF ([9]; 2% in W/O formulation): 0.94; λc ([9]; 2% in W/O formulation): 321 nm; SPF ([9]; 3% in W/O formulation): 5.09; UVAPF ([9]; 3% in W/O formulation): 1.02; λc ([9]; 3% in W/O formulation): 324 nm; inhibition at 100 µg/mL [5]: < 0%; inhibition at 100 µg/mL [7]: 7.28 ± 0.56%
